Reference: US9562035B2, “Benzamide derivative useful as FASN inhibitors for the treatment of cancer” (Janssen Pharmaceutica NV, priority 2013, dated 2017)

How the values were obtained:
[1] = tested on: LNCaP_Vancouver prostate cells; test: In Vitro LNCaP Vancouver Prostate Cell Proliferation Assay in Lipid Reduced Medium; type: cell-based; details: lipid reduced serum, 96 h, read-out: Vancouver Cells pIC50 (converted)
Method: LNCaP_Vancouver prostate cells were obtained from the Vancouver Prostate Cancer Centre. Cells were maintained in RPMI-1640, 10% Fetal Calf Serum (FCS, Hyclone), 2 mM glutamine and 50 μg/ml Gentamicin.
For the proliferation experiment 1500 LNCaP_Vancouver cells per well were seeded in a 384-well black with clear bottom plate (costar 3712BC) in 40 μl RPMI-1640, 10% Lipid reduced serum (LRS, Hyclone), 50 μg/ml Gentamicin and 2 mM Glutamine and incubated at 37° C., 5% CO2. The next day 10 μl of test compound/DMSO diluted in medium was added (3E-5M, 1E-5M, 3E-6M, 1E-6M, 3E-7M, 1E-7M, 3E-8M, 1E-8M final concentration). Compounds were tested in duplicate. After 96 h incubation at 37° C., 5% CO2 25 μl ATP-glow mix was added. The plate was incubated for 30 min at 37° C. and luminescence was measured with the Envision.
(§1) pIC50 values were calculated as follows. Raw data generated by the instruments were normalized to % Controlmin values, which were calculated as: % Controlmin=100*(x−mLC)/(mHC−mLC),
(§2) where mLC and mHC are the means of the low control wells and high control wells on the plate, after manual exclusion of outliers. The relation between the % Controlmin values and concentration was fitted to a 4-parameter logistic curve using a non-linear least squares regression method to determine the pIC50 value. Outlying data points were excluded manually to get a correct fit. The pIC50 corresponds to −log 10(IC50), if the IC50 is expressed in molar units (http://www.ncbi.nlm.nih.gov/books/NBK91994). The IC50 parameter was always determined by non-linear regression, but one or more of the other parameters may have been held fixed on a relevant input value, such as 0 for the bottom values.
(§3) For dose response curves with FASN inhibitors in LNCaP_Vancouver or PC-3M-Luc_C6 cells the curves bottom out around 30 to 40% of the control value. A standard fit PL2, forcing the lower bound to this level was used.
(§4) Representative compounds of the present invention were tested according to the procedure as described in Biological Example 4a and 4b above, with results as listed in Table BIO-4, below.

A2780 ovarian cells [2] = test: A2780 Ovarian Cell Proliferation Assay in Lipid Reduced Medium, without Palmitate; type: cell-based; details: Homo sapiens, A2780; lipid reduced medium, without palmitate, 96 h, MTT; read-out: Proliferation A2780 w/o Palmitate pIC50 (converted)
Summary of the method: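 A2780 cells were seeded in 10% FCS medium and switched next day to 10% lipid-reduced serum without palmitate. Compounds at 0.01–30 μM were added with 0.2% DMSO, 0.2% fatty-acid-free BSA and 0.25% ethanol final. After 96 h, MTT absorbance at 544 nm was normalized to plate controls, and IC50/pIC50 came from a 4-parameter logistic fit.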

[3] = biological target: T1, hFASN enzyme (full length) (Homo sapiens, UniProt P49327); test: Fatty Acid Synthase (FASN) Inhibition Scintillation Proximity Assay; type: biochemical; details: for inhibition at 10 µM: read-out: FASN % Effect @1E−05M; for IC50: mean where tested more than once, ~ = standard error of pIC50 larger than 0.5
T1 construct: 10 μL hFASN enzyme (full length, 300 ng, purified in house); made in house
T1 sequence (P49327 whole entry): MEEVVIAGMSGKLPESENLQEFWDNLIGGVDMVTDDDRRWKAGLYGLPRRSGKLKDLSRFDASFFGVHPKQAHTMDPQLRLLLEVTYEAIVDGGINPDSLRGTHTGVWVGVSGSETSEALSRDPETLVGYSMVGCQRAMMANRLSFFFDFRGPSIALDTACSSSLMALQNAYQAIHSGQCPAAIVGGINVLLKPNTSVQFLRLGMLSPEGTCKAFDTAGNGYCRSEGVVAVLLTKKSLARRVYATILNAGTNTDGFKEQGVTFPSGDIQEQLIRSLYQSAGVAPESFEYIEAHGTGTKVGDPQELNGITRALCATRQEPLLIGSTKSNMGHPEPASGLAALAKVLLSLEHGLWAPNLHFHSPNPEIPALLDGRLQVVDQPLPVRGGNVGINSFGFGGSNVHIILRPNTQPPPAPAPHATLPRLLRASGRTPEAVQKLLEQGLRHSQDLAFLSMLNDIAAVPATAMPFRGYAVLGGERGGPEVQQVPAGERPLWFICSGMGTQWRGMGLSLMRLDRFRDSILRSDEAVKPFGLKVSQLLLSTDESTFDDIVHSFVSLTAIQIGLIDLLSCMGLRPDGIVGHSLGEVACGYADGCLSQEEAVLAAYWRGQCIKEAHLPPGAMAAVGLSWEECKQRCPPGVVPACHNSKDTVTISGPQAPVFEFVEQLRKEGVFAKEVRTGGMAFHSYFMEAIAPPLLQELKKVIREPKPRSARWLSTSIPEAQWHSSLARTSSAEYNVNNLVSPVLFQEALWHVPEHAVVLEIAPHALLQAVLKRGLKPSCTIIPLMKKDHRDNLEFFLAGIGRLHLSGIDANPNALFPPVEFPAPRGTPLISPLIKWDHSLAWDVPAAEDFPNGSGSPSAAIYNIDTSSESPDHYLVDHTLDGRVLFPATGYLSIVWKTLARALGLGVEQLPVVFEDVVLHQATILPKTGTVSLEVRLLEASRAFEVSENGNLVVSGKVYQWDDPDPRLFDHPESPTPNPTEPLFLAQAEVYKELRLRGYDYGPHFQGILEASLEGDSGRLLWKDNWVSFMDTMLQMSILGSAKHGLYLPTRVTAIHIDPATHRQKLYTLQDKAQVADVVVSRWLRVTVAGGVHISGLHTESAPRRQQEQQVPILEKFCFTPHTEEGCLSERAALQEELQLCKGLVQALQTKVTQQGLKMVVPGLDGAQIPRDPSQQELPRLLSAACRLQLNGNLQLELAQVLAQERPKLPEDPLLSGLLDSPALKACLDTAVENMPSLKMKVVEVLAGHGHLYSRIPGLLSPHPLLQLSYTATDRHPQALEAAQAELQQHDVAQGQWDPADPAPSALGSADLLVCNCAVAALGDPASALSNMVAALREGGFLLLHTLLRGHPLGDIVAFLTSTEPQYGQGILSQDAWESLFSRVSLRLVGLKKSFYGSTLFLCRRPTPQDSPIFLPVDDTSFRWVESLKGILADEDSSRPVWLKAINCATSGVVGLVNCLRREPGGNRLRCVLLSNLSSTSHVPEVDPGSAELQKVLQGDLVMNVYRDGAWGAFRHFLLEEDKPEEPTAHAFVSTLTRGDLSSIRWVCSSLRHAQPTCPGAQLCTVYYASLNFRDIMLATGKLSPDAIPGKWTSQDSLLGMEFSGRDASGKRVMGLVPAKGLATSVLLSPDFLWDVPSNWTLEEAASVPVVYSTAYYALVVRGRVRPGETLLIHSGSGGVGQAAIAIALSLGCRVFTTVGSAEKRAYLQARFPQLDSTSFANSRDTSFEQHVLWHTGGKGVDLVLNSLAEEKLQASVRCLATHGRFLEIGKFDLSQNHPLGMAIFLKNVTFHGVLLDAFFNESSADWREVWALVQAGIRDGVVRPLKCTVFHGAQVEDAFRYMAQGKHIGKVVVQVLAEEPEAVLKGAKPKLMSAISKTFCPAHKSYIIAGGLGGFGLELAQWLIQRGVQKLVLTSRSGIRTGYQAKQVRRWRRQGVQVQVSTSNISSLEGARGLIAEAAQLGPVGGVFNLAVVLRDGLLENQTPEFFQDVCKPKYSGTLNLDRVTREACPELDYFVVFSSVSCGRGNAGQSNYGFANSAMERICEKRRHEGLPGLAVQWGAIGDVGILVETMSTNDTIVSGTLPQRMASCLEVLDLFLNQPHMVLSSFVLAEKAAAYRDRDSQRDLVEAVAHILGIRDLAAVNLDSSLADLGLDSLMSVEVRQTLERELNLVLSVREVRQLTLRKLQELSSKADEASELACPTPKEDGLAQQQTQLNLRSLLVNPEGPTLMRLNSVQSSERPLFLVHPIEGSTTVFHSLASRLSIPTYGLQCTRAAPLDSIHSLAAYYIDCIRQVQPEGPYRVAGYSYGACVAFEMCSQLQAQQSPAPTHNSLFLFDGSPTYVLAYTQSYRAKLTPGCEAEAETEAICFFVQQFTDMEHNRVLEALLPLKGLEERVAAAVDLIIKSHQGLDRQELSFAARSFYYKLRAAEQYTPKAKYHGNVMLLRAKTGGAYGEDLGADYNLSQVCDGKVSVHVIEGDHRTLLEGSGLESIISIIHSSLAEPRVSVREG
Summary of the method: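 Eight compound concentrations (0.01–30 μM) tested in pH 7.5 phosphate buffer with DTT; human full-length enzyme converted [3H]-acetyl-CoA plus malonyl-CoA, with NADPH, over 60 min at room temperature. Hydrophobic [3H]-palmitate detected by bead proximity scintillation imaging; control-normalised data fitted for IC50/pIC50.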

A2780 ovarian cells [4] = test: A2780 Ovarian Cell Proliferation Assay in Lipid Reduced Medium, with Palmitate (control); type: cell-based; details: Homo sapiens, A2780; lipid reduced medium, 25 μM palmitate, 96 h, MTT; read-out: Proliferation A2780 with Palmitate pIC50 (converted)
Summary of the method: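 Read-out was MTT absorbance at 544 nm after 96 h at 37 °C. Cells grown overnight in RPMI1640/10% FCS were moved to 10% lipid-reduced serum with compound plus palmitate (final 25 μM, 0.2% fatty-acid-free BSA, 0.2% DMSO). IC50 came from least-squares curve fitting, expressed as −log(IC50).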

[5] = tested on: PC-3M-Luc-C6 prostate cells; test: In Vitro PC-3M-Luc-C6 Prostate Cell Proliferation Assay in Lipid Reduced Medium; type: cell-based; details: read-out: PC-3M-Luc-C6 Cells pIC50 (μM) (converted), lipid reduced serum, 96 h
Method: PC-3M-Luc-C6 prostate cells were obtained from Xenogen Corporation. Cells were maintained in MEM supplemented with 10% Fetal Calf Serum (FCS, Hyclone), 2 mM glutamine, 1 mM sodium pyruvate, 1% BME vitamins (available from for example, Sigma Aldrich), 0.1 mM non Essential Amino Acid and 50 μg/ml Gentamicin. The cells were passaged twice a week.
1000 PC-3M-Luc-C6 prostate cells (Xenogen) were seeded in a 384-well black with clear bottom plate (costar 3712BC) in 40 μl MEM, 10% LRS (Hyclo ne), 50 μg/ml Gentamicin, 2 mM Glutamine, 1 mM Sodium pyruvaat, 1% BME vitamins and 0.1 mM non Essential Amino Acid and incubated at 37° C., 5% CO2. The next day 10 μl test compound/DMSO diluted in medium was added (3E-5M, 1E-5M, 3E-6M, 1E-6M, 3E-7M, 1E-7M, 3E-8M, 1E-8M final concentration). Compounds were tested in duplicate. After 96 h incubation at 37° C., 5% CO2 25 μl ATP-glow mix was added. The plate was incubated for 30 min at 37° C. and luminescence was measured with the Envision.
as §1, §2, §3, §4

[6] = biological target: T2, FASN Keto-reductase Domain (Homo sapiens, UniProt P49327); test: Fatty Acid Synthase Keto-Reductase Domain (FASN KR) Inhibition; type: biochemical; details: mean where tested more than once; read-out: FASN K-R Domain pIC50 (converted)
T2 construct: 10 μL hFASN enzyme (full length, 300 ng, purified in house) and 360 μM NADPH; made in house
T2 sequence (P49327 whole entry, the tested form may be a part): as the sequence (P49327 whole entry) above
Summary of the method: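 Keto-reductase activity followed as NADPH consumption (A340 drop between 0 and 20 min, room temperature) using in-house full-length hFASN, 360 μM NADPH and ethyl acetoacetate substrate (180 mM stock), pH 7.5 phosphate buffer.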

IC50 [1]	IC50 (A2780 ovarian cells [2])	inhibition at 10 µM [3]	IC50 (A2780 ovarian cells [4])	IC50 [5]	IC50 [6]	IC50 [3]	Structure (SMILES)
2190 nM	182 nM	98%	> 10000 nM	0.269 µM			CN(C)c1ccc(C(=O)N2CCC(c3ccc(-c4cnn(C)c4)cc3)CC2)cc1NC(=O)C1CC1 [Compound #273, N-(2-(dimethylamino)-5-(4-(4-(1-methyl-1H-pyrazol-4-yl)phenyl)piperidine-1-carbonyl)phenyl)cyclopropanecarboxamide]
	74.1 nM	112%	1580 nM		102 nM	53.7 nM	Cc1ccc(C(=O)N2CCC(c3ccc(-c4ccoc4)cc3)CC2)cc1NC(=O)c1ccc(NC(C)C)nc1 [Compound 235, N-(5-(4-(4-(furan-3-yl)phenyl)piperidine-1-carbonyl)-2-methylphenyl)-6-(isopropylamino)nicotinamide]
	214 nM	105%	> 10000 nM		501 nM	174 nM	Cc1ccc(C(=O)N2CCC(c3ccc(-c4cnn(C5CCOCC5)c4)cc3)CC2)cc1NC(=O)c1ccc(NC(C)C)nc1 [Compound 217]
	57.5 nM	108%	> 6170 nM		37.2 nM	26.3 nM	Cc1ccc(C(=O)N2CCC(c3ccc(-c4cnn(C)c4)cc3)CC2)cc1NC(=O)C1CCN(CC(C)C)CC1 [Compound 179, 1-isobutyl-N-(2-methyl-5-(4-(4-(1-methyl-1H-pyrazol-4-yl)phenyl)piperidine-1-carbonyl)phenyl)piperidine-4-carboxamide]
	437 nM	109%	3550 nM		245 nM	56.2 nM	CC(C)Nc1ccc(C(=O)Nc2cc(C(=O)N3CCC(c4ccc(-c5ccnn5C)cc4)CC3)ccc2Cl)cn1 [Compound 70, N-(2-chloro-5-(4-(4-(1-methyl-1H-pyrazol-5-yl)phenyl)piperidine-1-carbonyl)phenyl)-6-(isopropylamino)nicotinamide]
	417 nM	103%	> 10000 nM		240 nM	55 nM	Cc1ccc(C(=O)N2CCC(c3ccc(-c4cnn(C)c4)cc3)CC2)cc1NC(=O)c1cc(F)ccc1C [Compound 137, 5-fluoro-2-methyl-N-(2-methyl-5-(4-(4-(1-methyl-1H-pyrazol-4-yl)phenyl)piperidine-1-carbonyl)phenyl)benzamide]
